According to US20060069132A1, “Azolecarboxamide herbicides” (priority 2004, published 2006):

Key:
[1] = tested on: barnyardgrass; test: Test A pre-/postemergence herbicide test; type: in vivo, Echinochloa crus-galli
Summary of the method: (§1)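 Visual injury rating on a 0–100 scale (0 no effect, 100 complete control) versus untreated controls, about ten days after treatment in greenhouse. Pre: directed soil spray onto seeded sandy loam. Post: spray to runoff on plants 2–10 cm tall at one- to two-leaf stage.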

[2] = tested on: large crabgrass; test: Test A pre-/postemergence herbicide test; type: in vivo, Digitaria sanguinalis
Summary of the method: as §1

[3] = tested on: giant foxtail; test: Test A pre-/postemergence herbicide test; type: in vivo, Setaria faberi
Summary of the method: as §1

[4] = tested on: morningglory; test: Test A pre-/postemergence herbicide test; type: in vivo, Ipomoea spp.
Summary of the method: as §1

[5] = tested on: redroot pigweed; test: Test A pre-/postemergence herbicide test; type: in vivo, Amaranthus retroflexus
Summary of the method: as §1

[6] = tested on: velvetleaf; test: Test A pre-/postemergence herbicide test; type: in vivo, Abutilon theophrasti
Summary of the method: as §1

[7] = tested on: barnyardgrass; test: Test B pre-/postemergence herbicide test; type: in vivo, Echinochloa crus-galli; conditions: for Plant response rating, Barnyardgrass: preemergence; for Barnyardgrass plant response rating: postemergence, visual rating, scale 0 (no effect) to 100 (complete control)
Summary of the method: (§2)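 Visual rating, 0 (no effect) to 100 (complete control), versus untreated controls after 13–15 d in greenhouse. Pre- and postemergence applications (postemergence plants 2–18 cm, 1–4 leaves); flooded paddy arm at 2-leaf stage. Compounds in non-phytotoxic solvent plus surfactant.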

[8] = tested on: Surinam grass; test: Test B pre-/postemergence herbicide test; type: in vivo, Urochloa decumbens; conditions: for Plant response rating, Surinam Grass: preemergence; for Surinam Grass plant response rating: postemergence, visual rating, scale 0 (no effect) to 100 (complete control)
Summary of the method: (§3)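 Evaluation is visual, comparing treated with control plants on a scale where 0 means no effect and 100 means full control. Treatments were preemergence, or postemergence on seedlings 2–18 cm tall, and held 13–15 days in the greenhouse.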

[9] = tested on: cocklebur; test: Test B pre-/postemergence herbicide test; type: in vivo, Xanthium strumarium; conditions: for Plant response rating, Cocklebur: preemergence; for Cocklebur plant response rating: postemergence, visual rating, scale 0 (no effect) to 100 (complete control)
Summary of the method: as §2

[10] = tested on: corn; test: Test B pre-/postemergence herbicide test; type: in vivo, Zea mays; conditions: for Plant response rating, Corn: preemergence; for Corn plant response rating: postemergence, visual rating, scale 0 (no effect) to 100 (complete control)
Summary of the method: as §3

[11] = tested on: large crabgrass; test: Test B pre-/postemergence herbicide test; type: in vivo, Digitaria sanguinalis; conditions: for Plant response rating, Crabgrass, Large: preemergence; for Crabgrass, Large plant response rating: postemergence, visual rating, scale 0 (no effect) to 100 (complete control)
Summary of the method: as §3

[12] = tested on: giant foxtail; test: Test B pre-/postemergence herbicide test; type: in vivo, Setaria faberi; conditions: for Plant response rating, Foxtail, Giant: preemergence; for Foxtail, Giant plant response rating: postemergence, visual rating, scale 0 (no effect) to 100 (complete control)
Summary of the method: as §3

[13] = tested on: lambsquarters; test: Test B pre-/postemergence herbicide test; type: in vivo, Chenopodium album; conditions: for Plant response rating, Lambsquarters: preemergence; for Lambsquarters plant response rating: postemergence, visual rating, scale 0 (no effect) to 100 (complete control)
Summary of the method: as §3

[14] = tested on: morningglory; test: Test B pre-/postemergence herbicide test; type: in vivo, Ipomoea coccinea; conditions: for Plant response rating, Morningglory: preemergence; for Morningglory plant response rating: postemergence, visual rating, scale 0 (no effect) to 100 (complete control)
Summary of the method: as §2

[15] = tested on: pigweed; test: Test B pre-/postemergence herbicide test; type: in vivo, Amaranthus retroflexus; conditions: for Plant response rating, Pigweed: preemergence; for Pigweed plant response rating: postemergence, visual rating, scale 0 (no effect) to 100 (complete control)
Summary of the method: as §3

[16] = tested on: velvetleaf; test: Test B pre-/postemergence herbicide test; type: in vivo, Abutilon theophrasti; conditions: for Plant response rating, Velvetleaf: preemergence; for Velvetleaf plant response rating: postemergence, visual rating, scale 0 (no effect) to 100 (complete control)
Summary of the method: as §3

[17] = tested on: blackgrass; test: Test B postemergence herbicide test; type: in vivo, Alopecurus myosuroides; conditions: postemergence, visual rating, scale 0 (no effect) to 100 (complete control)
Summary of the method: (§4)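 Visual ratings, 0 (no effect) to 100 (complete control), made versus controls after 13–15 d greenhouse. Paddy plants treated at 2-leaf stage; postemergence plants at 1- to 4-leaf stage, 2–18 cm tall.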

[18] = tested on: wheat; test: Test B postemergence herbicide test; type: in vivo, Triticum aestivum; design: key to Wheat plant response rating: 0 = no effect, 100 = complete control; conditions: postemergence, 500 g ai/ha; visual rating, scale 0 (no effect) to 100 (complete control)
Summary of the method: (§5)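 After treating 2-leaf paddy plants or 2–18 cm postemergence plants (1 to 4 leaves) with formulated chemical, researchers kept them in a greenhouse for 13–15 days. Effects were judged visually versus controls: 0 indicates none, 100 total control.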

[19] = tested on: wild oat; test: Test B postemergence herbicide test; type: in vivo, Avena fatua; conditions: postemergence, visual rating, scale 0 (no effect) to 100 (complete control)
Summary of the method: as §5

[20] = tested on: rice; test: Test B flooded paddy test; type: in vivo, Oryza sativa; conditions: 1000 g ai/ha, visual rating, scale 0 to 100 (0 no effect, 100 complete control), 13 to 15 days
Summary of the method: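 Each value is a visual 0–100 response rating taken against controls 13 to 15 days after treatment in the greenhouse. Plants received formulated chemical postemergence at the 1- to 4-leaf stage or, in flooded paddy, at the 2-leaf stage.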

[21] = tested on: small flower umbrella sedge; test: Test B flooded paddy test; type: in vivo, Cyperus difformis; conditions: 1000 g ai/ha, visual rating, scale 0 to 100 (0 no effect, 100 complete control), 13 to 15 days
Summary of the method: as §4

[22] = tested on: ducksalad; test: Test B flooded paddy test; type: in vivo, Heteranthera limosa; conditions: 1000 g ai/ha, visual rating, scale 0 to 100 (0 no effect, 100 complete control), 13 to 15 days
Summary of the method: as §4

[23] = tested on: barnyardgrass; test: Test B flooded paddy test; type: in vivo, Echinochloa crus-galli; conditions: 1000 g ai/ha, visual rating, scale 0 to 100 (0 no effect, 100 complete control), 13 to 15 days
Summary of the method: as §4

[24] = Postemergence, 500 g ai/ha, 0 to 100 scale, 0 no effect, 100 complete control
[25] = Postemergence, 2000 g ai/ha, 0 to 100 scale, 0 no effect, 100 complete control
[26] = Preemergence, 500 g ai/ha, visual rating, 0 to 100 scale (0 no effect, 100 complete control)
[27] = Preemergence, 2000 g ai/ha, visual rating, 0 to 100 scale (0 no effect, 100 complete control)
[28] = preemergence, 500 g ai/ha, visual injury, 0 to 100 scale (0 no effect, 100 complete control)
[29] = 500 g ai/ha, visual rating 0-100, 0 no effect, 100 complete control
[30] = 125 g ai/ha, 0 to 100 scale, 0 is no effect, 100 is complete control

SMILES: CC(=NO)c1ccnc(NC(=O)c2cc(C(C)(C)C)nn2C)n1 [Compound 164]
- Barnyardgrass plant response rating [1, 24]: 10
- Plant response rating, Barnyardgrass [1, 25]: 10
- Barnyardgrass plant response rating [1, 26]: 0
- Barnyardgrass plant response rating [1, 27]: 0
- Crabgrass, Large plant response rating [2, 24]: 10
- Plant response rating, Crabgrass, Large [2, 25]: 10
- Crabgrass, Large plant response rating [2, 26]: 0
- Crabgrass, Large plant response rating [2, 27]: 0
- Foxtail, Giant plant response rating [3, 24]: 0
- Plant response rating, Foxtail, Giant [3, 25]: 0
- Foxtail, Giant plant response rating [3, 26]: 0
- Foxtail, Giant plant response rating [3, 27]: 0
- Morningglory plant response rating [4, 24]: 10
- Plant response rating, Morningglory [4, 25]: 5
- Morningglory plant response rating [4, 26]: 0
- Morningglory plant response rating [4, 27]: 0
- Pigweed plant response rating [5, 24]: 0
- Plant response rating, Pigweed [5, 25]: 0
- Pigweed plant response rating [5, 27]: 0
- Pigweed plant response rating [5, 28]: 0
- Velvetleaf plant response rating [6, 24]: 5
- Plant response rating, Velvetleaf [6, 25]: 0
- Velvetleaf plant response rating [6, 27]: 0
- Velvetleaf plant response rating [6, 28]: 0
- Plant response rating, Barnyardgrass [7, 29]: 0
- Barnyardgrass plant response rating ([7]; 125 g ai/ha): 0
- Barnyardgrass plant response rating ([7]; 500 g ai/ha): 0
- Plant response rating, Barnyardgrass [7, 30]: 0
- Plant response rating, Surinam Grass [8, 29]: 0
- Surinam Grass plant response rating ([8]; 125 g ai/ha): 0
- Surinam Grass plant response rating ([8]; 500 g ai/ha): 10
- Plant response rating, Surinam Grass [8, 30]: 0
- Plant response rating, Cocklebur [9, 29]: 0
- Cocklebur plant response rating ([9]; 125 g ai/ha): 0
- Cocklebur plant response rating ([9]; 500 g ai/ha): 0
- Plant response rating, Cocklebur [9, 30]: 0
- Plant response rating, Corn [10, 29]: 0
- Corn plant response rating ([10]; 125 g ai/ha): 0
- Corn plant response rating ([10]; 500 g ai/ha): 10
- Plant response rating, Corn [10, 30]: 0
- Plant response rating, Crabgrass, Large [11, 29]: 0
- Crabgrass, Large plant response rating ([11]; 125 g ai/ha): 0
- Crabgrass, Large plant response rating ([11]; 500 g ai/ha): 0
- Plant response rating, Crabgrass, Large [11, 30]: 0
- Plant response rating, Foxtail, Giant [12, 29]: 0
- Foxtail, Giant plant response rating ([12]; 125 g ai/ha): 0
- Foxtail, Giant plant response rating ([12]; 500 g ai/ha): 0
- Plant response rating, Foxtail, Giant [12, 30]: 0
- Plant response rating, Lambsquarters [13, 29]: 0
- Lambsquarters plant response rating ([13]; 125 g ai/ha): 0
- Lambsquarters plant response rating ([13]; 500 g ai/ha): 10
- Plant response rating, Lambsquarters [13, 30]: 0
- Plant response rating, Morningglory [14, 29]: 0
- Morningglory plant response rating ([14]; 125 g ai/ha): 0
- Morningglory plant response rating ([14]; 500 g ai/ha): 0
- Plant response rating, Morningglory [14, 30]: 0
- Plant response rating, Pigweed [15, 29]: 0
- Pigweed plant response rating ([15]; 125 g ai/ha): 0
- Pigweed plant response rating ([15]; 500 g ai/ha): 0
- Plant response rating, Pigweed [15, 30]: 0
- Plant response rating, Velvetleaf [16, 29]: 0
- Velvetleaf plant response rating ([16]; 125 g ai/ha): 0
- Velvetleaf plant response rating ([16]; 500 g ai/ha): 0
- Plant response rating, Velvetleaf [16, 30]: 0
- Blackgrass plant response rating ([17]; 125 g ai/ha): 0
- Blackgrass plant response rating ([17]; 500 g ai/ha): 0
- Wheat plant response rating [18]: 0
- Oat, Wild plant response rating ([19]; 125 g ai/ha): 0
- Oat, Wild plant response rating ([19]; 500 g ai/ha): 0
- Rice plant response rating [20]: 0
- Sedge, Umbrella plant response rating [21]: 0
- Ducksalad plant response rating [22]: 0
- Barnyardgrass plant response rating [23]: 0
